Reference: US11247990B1, “Bicyclic fused pyridine compounds as inhibitors of TAM kinases” (ARRAY BIOPHARMA INC., priority 2017, dated 2022)

Tests used:
Settings in all cases: averaged IC50
[1] = biological target: His-tagged recombinant human AXL cytoplasmic domain (Homo sapiens (Human), UniProt P30530); assay: AXL Enzyme Assay (LanthaScreen Eu Kinase Binding, TR-FRET)
How it was run: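 LanthaScreen Eu kinase binding format, incubated 60 min at 22 °C and read by TR-FRET dual-wavelength emission ratio as percent of control. IC50 taken where a 4-parameter logistic fit crosses 50 POC.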

[2] = biological target: His-tagged recombinant human MER cytoplasmic domain (Homo sapiens (Human), UniProt Q12866); assay: MER Enzyme Assay (LanthaScreen Eu Kinase Binding, TR-FRET)
How it was run: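 LanthaScreen Eu kinase binding (tracer displacement) assay with His-tagged human MER cytoplasmic domain, 60 min incubation at 22 °C. TR-FRET dual-wavelength emission ratio converted to percent of control; IC50 is where the 4-parameter logistic fit crosses 50 POC.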

[3] = biological target: GST-tagged recombinant human TYRO3 kinase domain (Homo sapiens (Human), UniProt Q06418); assay: TYRO3 Enzyme Assay (LanthaScreen Eu Kinase Binding, TR-FRET)
How it was run: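 LanthaScreen Eu binding (tracer displacement) format read by TR-FRET after 60 min at 22 °C. Emission ratio converted to percent of control; IC50 taken where a 4-parameter logistic fit crosses 50 POC.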

His-tagged recombinant human AXL cytoplasmic domain, sequence (P30530 473-894): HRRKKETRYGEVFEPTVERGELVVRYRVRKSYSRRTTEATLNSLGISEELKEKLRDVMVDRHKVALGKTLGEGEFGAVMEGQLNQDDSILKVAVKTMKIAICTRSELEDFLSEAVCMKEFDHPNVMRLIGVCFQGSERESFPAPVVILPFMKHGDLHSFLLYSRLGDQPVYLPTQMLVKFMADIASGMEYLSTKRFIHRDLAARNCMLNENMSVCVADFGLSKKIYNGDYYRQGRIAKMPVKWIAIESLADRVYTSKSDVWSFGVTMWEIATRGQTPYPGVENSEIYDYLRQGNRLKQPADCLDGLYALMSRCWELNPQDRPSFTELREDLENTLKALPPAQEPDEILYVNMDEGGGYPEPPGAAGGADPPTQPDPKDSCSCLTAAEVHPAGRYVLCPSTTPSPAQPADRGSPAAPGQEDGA
His-tagged recombinant human MER cytoplasmic domain, sequence (Q12866 527-999): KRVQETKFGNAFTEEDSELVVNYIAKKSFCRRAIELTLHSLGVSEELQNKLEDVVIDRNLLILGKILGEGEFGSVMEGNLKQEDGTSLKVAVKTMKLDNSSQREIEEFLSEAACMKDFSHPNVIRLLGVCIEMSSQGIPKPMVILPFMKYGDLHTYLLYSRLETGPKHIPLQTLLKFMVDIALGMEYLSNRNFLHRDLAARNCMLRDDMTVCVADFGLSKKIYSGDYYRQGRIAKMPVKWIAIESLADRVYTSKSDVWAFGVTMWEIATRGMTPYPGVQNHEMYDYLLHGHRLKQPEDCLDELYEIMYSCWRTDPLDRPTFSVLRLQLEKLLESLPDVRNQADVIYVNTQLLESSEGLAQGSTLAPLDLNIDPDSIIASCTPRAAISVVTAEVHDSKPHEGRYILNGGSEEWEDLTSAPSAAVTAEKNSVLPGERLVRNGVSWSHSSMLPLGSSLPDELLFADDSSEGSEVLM
GST-tagged recombinant human TYRO3 kinase domain, sequence (Q06418 518-790): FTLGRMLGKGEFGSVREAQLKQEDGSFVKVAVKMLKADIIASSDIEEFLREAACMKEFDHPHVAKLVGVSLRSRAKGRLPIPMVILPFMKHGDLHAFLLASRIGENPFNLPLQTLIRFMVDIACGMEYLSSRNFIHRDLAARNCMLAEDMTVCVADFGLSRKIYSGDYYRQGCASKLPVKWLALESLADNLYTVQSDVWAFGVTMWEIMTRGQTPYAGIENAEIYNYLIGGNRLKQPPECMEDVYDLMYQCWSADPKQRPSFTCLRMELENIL

IC50 [1]: < 0.01 µM
IC50 [2]: < 0.01 µM
IC50 [3]: 0.01 to 0.1 µM
Compound: CCNc1cc2c(cn1)c(-c1cnn(C)c1)nn2[C@H]1CC[C@@H](Oc2cccc(C(F)(F)F)c2F)CC1 [Example 498, N-ethyl-1-((1s,4s)-4-(2-fluoro-3-(trifluoromethyl)phenoxy)cyclohexyl)-3-(1-methyl-1H-pyrazol-4-yl)-1H-pyrazolo[4,3-c]pyridin-6-amine]
